# Experimental data reported in US6825173B2, “Preparation of fagopyritols and uses therefor” (Cornell Research Foundation, Inc., priority 1997, dated 2004).
# Legend:
# human fecal microflora = assay: In vitro fermentation of fagopyritol-enriched buckwheat extract by human fecal microflora; assay type: in vitro ADME; details: 40° C.; for concentration of inositols and fagopyritols: anaerobic
# Protocol: Fermentation tests were done with fagopyritol-enriched Birkett Mills buckwheat extract that had previously been treated with dry granular baking yeast. Yeast cells were removed by centrifugation (10 minutes at 19K rpm using a Sorvall refrigerated centrifuge) and ultrafiltration (Amicon filtration device, 10, 000 MW cut-off). The fagopyritol water extract was boiled under carbon dioxide to sterilize and remove all other gases.
# Anaerobic conditions were maintained during the preparation of fecal inoculum and of all samples by working under streams of carbon dioxide gas. Fermentation bottles were sealed with rubber stoppers and metal caps.
# Fagopyritol substrate was prepared first. Then, 1 ml was placed in all bottles except blanks (duplicate samples plus one control and one blank done for 0, 6, 12, and 24 hours). Next, the nutritive medium was prepared. Control bottles received 1 ml of the medium in place of inoculum. The remaining medium was used to dilute fresh feces 1:12, w/v, prepared as described in Barry et al., “In Vitro Fermentation of Neutral Monosaccharides by Ruminal and Human Fecal Microflora,” Acta Vet Scand, 86 (supplement): 93-95 (1989) and Guillon et al., “Characterization of Residual Fibers from Fermentation of Pea and Apple Fibres by Human Fecal Bacteria,” J. Sci. Food Agric., 68:521-529 (1995), which are hereby incorporated by reference. All samples and blanks were inoculated with 1 ml of fecal inoculum by syringe through the rubber stoppers.
# A 40° C. water bath was used for the fermentation which was stopped at the specified times by opening bottles to air and immediately freezing.
# The samples were prepared for GC analysis after thawing by centrifuging (microfuge, 8000 rpm) once and then again in 10,000 MW cut-off microfuge tubes. The salts present in those samples containing nutritive medium were removed by passing each sample through Amberlite mixed-bed resin, because salts interfere with TMS-derivitization. Two control samples of the original extract were also passed through the resin to insure that fagopyritols were not removed by the treatment.
# A small volume of each (750 μL) was dried with 100 μg of internal standard (phenyl α-D-glucopyranoside) in silyation vials under a stream of nitrogen gas; vials were then placed in a desiccator over P205 overnight.
# Trimethylsilyl derivitives were prepared by adding 100 μL of 1:1 pyridine:TMS solution and heating at 70° C. for 30 minutes.
# Finally, derivitized samples were analyzed on the GC (HP 5890 Series II; DB-1 column; 0.25 mm i.d., 15 m length, 0.25 μm film thickness).
# [1] = system: bovine liver β-D-galactosidase (EC 3.2.1.23); assay: Enzymatic hydrolysis with β-galactosidase; assay type: biochemical; details: for hydrolysis by β-galactosidase (in words): 0.5 units in 200 μL water at 37° C. for 24 h, products by GC
# Protocol: (§1) Acid and Enzymic Hydrolysis. […] Enzyme protein was removed by filtration (10,000 MW cut-off filter), samples were dried, and products assayed by GC analysis of trimethylsilyl derivatives. Raffinose and lactose (100 μg) were hydrolyzed only by α- or β-D-galactosidase respectively, confirming that both enzymes were active.
# as §1, with “hydrolyzed” for “hydrolyzed only”
# [2] = biological target: T1, green coffee bean α-D-galactosidase (EC 3.2.1.22) (Coffea arabica, UniProt Q42656); assay: Enzymatic hydrolysis with α-galactosidase; assay type: biochemical; details: for hydrolysis by α-galactosidase (in words): 1.25 units desalted enzyme in 200 μL water at 22° C. (Examples 22, 23), products by GC
# T1 construct: desalted green coffee bean α-D-galactosidase (EC 3.2.1.22); purchased Boehringer Mannheim Corporation, Indianapolis, Ind; host or cells: green coffee bean
# Protocol: Enzymatic Digestion. One ml of green coffee bean α-galactosidase (EC 3.2.1.22) (Boehringer Mannheim Corporation, Indianapolis, Ind.) in 3.2 M ammonium sulfate was dialyzed overnight against 1000 ml of distilled water to remove the ammonium sulfate that interferes with the silylation reaction and causes variable results. […] After 24 h, 0.2 ml of absolute ethanol and 100 μg of internal standard were added. The mixture was heated to 90° C. for 5 min to inactivate the enzyme and centrifuged through a 10,000 Mr cutoff filter. The filtrate was evaporated to dryness in a stream of nitrogen gas, silylated, and analyzed by gas chromatography as above.
# as §1
# as §1, with “hydrolyzed” for “hydrolyzed only”
# [3] = Controls (nutritive medium in place of fecal inoculum), 0 hrs
# [4] = Controls (nutritive medium in place of fecal inoculum), 6 hrs
# [5] = Controls (nutritive medium in place of fecal inoculum), 12 hrs
# [6] = Samples with human fecal inoculum, 0 hrs
# [7] = Samples with human fecal inoculum, 6 hrs
# [8] = Samples with human fecal inoculum, 12 hrs
# T1 sequence (Q42656 16-378): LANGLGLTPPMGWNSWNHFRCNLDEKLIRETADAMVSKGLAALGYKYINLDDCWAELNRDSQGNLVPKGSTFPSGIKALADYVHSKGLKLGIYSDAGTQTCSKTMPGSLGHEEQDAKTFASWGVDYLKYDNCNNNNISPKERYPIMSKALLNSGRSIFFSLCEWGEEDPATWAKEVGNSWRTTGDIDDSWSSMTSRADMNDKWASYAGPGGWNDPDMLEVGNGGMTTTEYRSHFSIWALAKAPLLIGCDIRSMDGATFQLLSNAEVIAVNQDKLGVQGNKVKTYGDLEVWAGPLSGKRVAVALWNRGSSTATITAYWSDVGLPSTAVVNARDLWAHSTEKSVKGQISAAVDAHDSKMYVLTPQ
Molecule,concentration of inositols and fagopyritols (human fecal microflora; [3]) [µg/750 µL],concentration of inositols and fagopyritols (human fecal microflora; [4]) [µg/750 µL],concentration of inositols and fagopyritols (human fecal microflora; [5]) [µg/750 µL],concentration of inositols and fagopyritols (human fecal microflora; [6]) [µg/750 µL],concentration of inositols and fagopyritols (human fecal microflora; [7]) [µg/750 µL],concentration of inositols and fagopyritols (human fecal microflora; [8]) [µg/750 µL],hydrolysis by β-galactosidase (in words) [1],Enzymic hydrolysis by β-D-galactosidase ([1]; Fagopyritol A and B Series),hydrolysis by α-galactosidase (in words) [2],Enzymic hydrolysis by α-D-galactosidase ([2]; Fagopyritol A and B Series),Enzymic hydrolysis by β-D-galactosidase ([1]; Galactinol Series),Enzymic hydrolysis by α-D-galactosidase ([2]; Galactinol Series),metabolism by fecal bacteria (in words) (human fecal microflora; fermentation of fagopyritol-enriched extract)
OC1C(O)C(O)C(O)C(O)C1O [D-chiro-inositol],99,102,58,47,0,0,,,,,,,
"OCC1O[C@@H](O[C@H]2C(O)C(O)[C@H](O)C(O)C2O)C(O)C(O)[C@H]1O (stereo partly drawn) [Fagopyritol A1, O-α-D-galactopyranosyl-(1→3)-D-chiro-inositol]",88,87,94,106,0,0,not by β-D-galactosidase,no,hydrolyzed,yes,,,
"OCC1O[C@H](OCC2O[C@@H](O[C@H]3C(O)C(O)[C@H](O)C(O)C3O)C(O)C(O)[C@H]2O)C(O)C(O)[C@H]1O (stereo partly drawn) [Fagopyritol A2, O-α-D-galactopyranosyl-(1→6)-O-α-D-galactopyranosyl-(1→3)-D-chiro-inositol]",56,54,59,54,0,0,not by P-D-galactosidase,no,hydrolyzed,yes,,,
"OCC1O[C@H](OC2C(O)[C@H](O)C(O)C(O)[C@@H]2O)C(O)C(O)[C@H]1O (stereo partly drawn) [Fagopyritol B1, O-α-D-galactopyranosyl-(1→2)-D-chiro-inositol]",667,636,605,591,0,0,not by β-D-galactosidase,no,hydrolyzed,yes,,,
"OCC1O[C@H](OCC2O[C@H](OC3C(O)[C@H](O)C(O)C(O)[C@@H]3O)C(O)C(O)[C@H]2O)C(O)C(O)[C@H]1O (stereo partly drawn) [Fagopyritol B2, O-α-D-galactopyranosyl-(1→6)-O-α-D-galactopyranosyl-(1→2)-D-chiro-inositol]",83,72,66,65,0,0,not by P-D-galactosidase,no,hydrolyzed,yes,,,
OC[C@H]1O[C@H](OC2[C@@H](O)[C@H](O)C(O)[C@H](O)[C@@H]2O)[C@H](O)[C@@H](O)[C@H]1O (stereo partly drawn) [Galactinol (gt1)],,,,,,,,,,,no,yes,
"OC[C@H]1O[C@H](OC[C@H]2O[C@H](O[C@]3(CO)O[C@H](CO)[C@@H](O)[C@@H]3O)[C@H](O)[C@@H](O)[C@@H]2O)[C@H](O)[C@@H](O)[C@H]1O [Raffinose, O-α-D-galactopyranosyl-(1→6)-α-D-glucopyranosyl-(1→2)-β-D-fructofuranoside, reference compound]",,,,,,,,,hydrolyzed,,,,
"OCC1OC(OCC2OC(OCC3OC(OC4C(O)C(O)C(O)C(O)C4O)C(O)C(O)C3O)C(O)C(O)C2O)C(O)C(O)C1O [TGMI, O-α-D-galactopyranosyl-(1→6)-O-α-D-galactopyranosyl-(1→6)-O-α-D-galactopyranosyl-(1→3)-D-myo-inositol]",,,,,,,,,completely hydrolyzed,,,,
"OC[C@H]1O[C@H](OC[C@H]2O[C@H](O[C@@H]3[C@@H](O)[C@H](O)[C@@H](O)[C@H](O)[C@@H]3O)[C@H](O)[C@@H](O)[C@H]2O)[C@H](O)[C@@H](O)[C@H]1O [digalactosyl myo-inositol, O-α-D-galactopyranosyl-(1→6)-O-α-D-galactopyranosyl-(1→3)-D-myo-inositol]",,,,,,,not by β-galactosidase,,completely hydrolyzed,,,,
"OC[C@H]1O[C@@H](O[C@H]2[C@H](O)[C@@H](O)C(O)O[C@@H]2CO)[C@H](O)[C@@H](O)[C@H]1O (stereo partly drawn) [lactose, reference compound]",,,,,,,hydrolyzed,,,,,,
O[C@H]1[C@H](O)[C@@H](O)[C@H](O)[C@@H](O)[C@H]1O [myo-inositol],45,48,26,20,0,0,,,,,,,
"OC[C@H]1O[C@H](O[C@H]2O[C@H](CO)[C@@H](O)[C@H](O)[C@H]2O)[C@H](O)[C@@H](O)[C@@H]1O [trehalose, O-α-D-glucopyranosyl-(1-1′)-O-α-D-glucoside]",,,,,,,,,,,,,metabolized
O-α-D-galactopyranosyl-(1→6)-O-α-D-galactopyranosyl-(1→6)-O-α-D-galactopyranosyl-(1→2)-D-chiro-inositol [Fagopyritol B3],,,,,,,,,completely hydrolyzed,yes,,,
O-α-D-galactopyranosyl-(1→6)-O-α-D-galactopyranosyl-(1→6)-O-α-D-galactopyranosyl-(1→3)-D-chiro-inositol [Fagopyritol A3],21,20,26,48,0,0,not by P-D-galactosidase,no,hydrolyzed,yes,,,
